Data: patent US12187701B2, “Taire family kinase inhibitors and uses thereof” (Dana-Farber Cancer Institute, Inc., priority 2018, dated 2025)

Tests used:
Cdk14/CycY = Cdk14/CycY (Homo sapiens (Human), UniProt O94921); test: Lanthascreen Eu kinase binding assay for Cdk14/CycY with 30 minute pre-incubation; conditions: 30 minute pre-incubation of kinase with compound; read-out: IC50 CDK14 binding by Lanthascreen
Description: Lanthascreen Eu kinase binding assays were conducted for Cdk14/CycY largely as performed in the commercial assay service by Life Technologies, but included a 30 minute pre-incubation step of the kinase with candidate compounds to facilitate covalent bond formation.

HCT116 cells = test: Antiproliferation assay, Cell Titer Glo, 72 hours; assay type: cell-based; conditions: Homo sapiens, HCT-116, 72 h
Outline: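 HCT116 cells seeded at 750 cells/well in McCoy's 5A with 10% FBS and exposed to four-fold compound dilution series for 72 h at 37 °C, 5% CO2. Viability by CellTiter-Glo luminescence, quadruplicate; IC50 by non-linear regression.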

Cdk14 [1] = molecular target: T1, Cdk14 (Homo sapiens (Human), UniProt O94921); test: Cellular pull down with biotinylated probe, CDK14; assay type: cell-based; conditions: HEK293 cells overexpressing Cdk14-flag
Description: HEK293 cells overexpressing a Cdk14-flag fusion protein were treated with candidate compounds for 4 hours. Cells were washed with PBS, harvested and lysed in Pierce IP buffer with protease and phosphatase inhibitors (Roche). […] To enhance pulldown, lysates were incubated at room temperature for an additional 2 hours. […] Beads were then washed 3 times with Pierce IP buffer, then boiled at 95° C. for 5 minutes in 2× LDS+10% β-mercaptoethanol. Proteins of interest engaged by the biotinylated compound were then assessed using western blotting.
Target sequence in this assay (O94921 whole entry, the tested form may be a part): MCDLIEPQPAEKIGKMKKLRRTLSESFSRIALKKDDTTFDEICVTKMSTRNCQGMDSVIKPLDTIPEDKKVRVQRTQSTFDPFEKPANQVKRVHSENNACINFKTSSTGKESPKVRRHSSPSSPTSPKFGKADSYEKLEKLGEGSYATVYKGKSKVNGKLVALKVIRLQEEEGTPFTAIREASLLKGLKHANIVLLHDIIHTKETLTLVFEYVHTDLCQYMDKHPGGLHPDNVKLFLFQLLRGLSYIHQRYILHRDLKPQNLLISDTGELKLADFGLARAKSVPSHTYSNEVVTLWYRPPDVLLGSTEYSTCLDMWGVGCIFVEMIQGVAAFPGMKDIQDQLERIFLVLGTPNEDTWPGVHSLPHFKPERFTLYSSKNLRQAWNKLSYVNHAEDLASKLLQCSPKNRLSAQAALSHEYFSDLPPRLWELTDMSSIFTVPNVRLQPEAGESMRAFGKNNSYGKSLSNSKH

CDK16/CycY = CDK16/CycY (Homo sapiens (Human), UniProt Q00536); test: Lanthascreen Eu kinase binding assay for CDK16/CycY; conditions: read-out: IC50 CDK16 Lanthascreen binding
Description: Lanthascreen Eu kinase binding assays were conducted for CDK16/CycY at Life Technologies.

CDK2/CycA = CDK2/CycA (Homo sapiens (Human), UniProt P24941); test: Z'LYTE kinase assay for CDK2/CycA at Km ATP; assay type: biochemical; conditions: read-out: IC50 CDK2 Z′LYTE kinase assay
Cdk14 [2] = molecular target: T1, Cdk14; test: Cdk14 33P kinase assay (Reaction Biology Corp.); assay type: biochemical
Target sequence in this assay (O94921 whole entry, looked up, the tested form may be a part): as the sequence (O94921 whole entry, the tested form may be a part) above
Target sequence in this assay (Q8ND76 whole entry partner, looked up, the tested form may be a part): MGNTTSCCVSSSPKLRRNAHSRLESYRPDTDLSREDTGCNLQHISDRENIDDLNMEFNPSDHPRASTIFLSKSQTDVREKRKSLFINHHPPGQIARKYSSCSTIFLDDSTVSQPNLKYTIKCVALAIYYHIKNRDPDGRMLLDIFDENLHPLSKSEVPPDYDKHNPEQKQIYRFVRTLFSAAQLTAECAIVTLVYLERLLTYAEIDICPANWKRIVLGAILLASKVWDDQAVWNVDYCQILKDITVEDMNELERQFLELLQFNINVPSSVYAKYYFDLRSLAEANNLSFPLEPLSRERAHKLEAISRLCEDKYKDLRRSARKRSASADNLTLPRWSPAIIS

[3] = 4 hours treatment, some cells print Y or N instead of a concentration

Sequence of CDK16/CycY (Q00536 whole entry): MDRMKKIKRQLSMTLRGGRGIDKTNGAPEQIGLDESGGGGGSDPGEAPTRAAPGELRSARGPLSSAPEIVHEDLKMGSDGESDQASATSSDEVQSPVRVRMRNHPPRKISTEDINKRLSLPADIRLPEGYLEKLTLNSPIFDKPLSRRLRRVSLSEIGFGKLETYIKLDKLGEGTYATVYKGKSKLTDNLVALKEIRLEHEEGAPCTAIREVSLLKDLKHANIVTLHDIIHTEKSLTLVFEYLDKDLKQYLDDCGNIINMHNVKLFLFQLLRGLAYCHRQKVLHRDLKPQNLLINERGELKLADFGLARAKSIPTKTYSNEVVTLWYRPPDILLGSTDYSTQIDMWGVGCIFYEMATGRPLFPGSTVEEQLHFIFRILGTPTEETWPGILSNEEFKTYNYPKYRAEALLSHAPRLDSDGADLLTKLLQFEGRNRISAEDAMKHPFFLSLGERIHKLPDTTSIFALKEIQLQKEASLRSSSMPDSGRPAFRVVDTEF
Sequence of CDK16/CycY (Q8ND76 whole entry partner): as the sequence (Q8ND76 whole entry partner, looked up, the tested form may be a part) above
Sequence of Cdk14/CycY (O94921 whole entry): as the sequence (O94921 whole entry, the tested form may be a part) above
Sequence of Cdk14/CycY (Q8ND76 whole entry partner): as the sequence (Q8ND76 whole entry partner, looked up, the tested form may be a part) above

| Structure (SMILES) | IC50 (Cdk14/CycY) [nM] | IC50 (HCT116 cells) [nM] | Cellular Potency by Pulldown (Cdk14 [1]; [3]) [nM] | IC50 (CDK16/CycY) [nM] | IC50 (CDK2/CycA) [nM] | IC50 (Cdk14 [2]) [nM] | Cellular Potency by Pulldown (Cdk14 [1]; cell prints LOW (>1 uM)) | Cellular Potency by Pulldown (Cdk14 [1]; cell prints LOW (>1 μM)) |
| --- | --- | --- | --- | --- | --- | --- | --- | --- |
| C=CC(=O)Nc1cccc(C(=O)Nc2ccc(NC(=O)c3n[nH]cc3NC(=O)c3c(Cl)cccc3Cl)cc2)c1 [FMF-03-205-1, N-(4-(3-acrylamidobenzamido)phenyl)-4-(2,6-dichlorobenzamido)-1H-pyrazole-3-carboxamide] | 1010 | 6 | 500 |  |  |  |  |  |
| CN(C)C/C=C/C(=O)Nc1cccc(S(=O)(=O)N2CCC(N(C)C(=O)c3n[nH]cc3NC(=O)c3c(Cl)cccc3Cl)CC2)c1 [FMF-04-086-2, (E)-4-(2,6-dichlorobenzamido)-N-(1-((3-(4-(dimethylamino)but-2-enamido)phenyl)sulfonyl)piperidin-4-yl)-N-methyl-1H-pyrazole-3-carboxamide] | > 1000 | > 10000 |  | 894 | 664 |  |  |  |
| CN(C)C/C=C/C(=O)Nc1cccc(S(=O)(=O)N2CCC(NC(=O)c3nscc3NC(=O)c3c(Cl)cccc3Cl)CC2)c1 [FMF-04-089-2, (E)-4-(2,6-dichlorobenzamido)-N-(1-((3-(4-(dimethylamino)but-2-enamido)phenyl)sulfonyl)piperidin-4-yl)isothiazole-3-carboxamide] | > 1000 | 3040 |  | 404 | 439 |  |  |  |
| C=CC(=O)Nc1cccc(S(=O)(=O)N2CCC(NC(=O)c3n[nH]cc3NC(=O)c3c(F)cccc3F)CC2)c1 [FMF-04-096-1, N-(1-((3-acrylamidophenyl)sulfonyl)piperidin-4-yl)-4-(2,6-difluorobenzamido)-1H-pyrazole-3-carboxamide] | > 1000 | 114 |  |  |  | 284 |  |  |
| CN(C)C/C=C/C(=O)Nc1cccc(S(=O)(=O)N2CCC(NC(=O)c3c(NC(=O)c4c(Cl)cccc4Cl)cnn3C)CC2)c1 [FMF-04-121-1, (E)-4-(2,6-dichlorobenzamido)-N-(1-((3-(4-(dimethylamino)but-2-enamido)phenyl)sulfonyl)piperidin-4-yl)-1-methyl-1H-pyrazole-5-carboxamide] | 486 | 2860 |  | 6700 | > 10000 |  |  |  |
| Cc1[nH]nc(C(=O)NC2CCN(S(=O)(=O)c3cccc(NC(=O)/C=C/CN(C)C)c3)CC2)c1NC(=O)c1c(Cl)cccc1Cl [FMF-04-181-2, (E)-4-(2,6-dichlorobenzamido)-N-(1-((3-(4-(dimethylamino)but-2-enamido)phenyl)sulfonyl)piperidin-4-yl)-5-methyl-1H-pyrazole-3-carboxamide] | > 1000 | > 10000 |  | 124 | 125 |  |  |  |
| C=CC(=O)Nc1cccc(S(=O)(=O)N2CCC(NC(=O)c3n[nH]cc3NC(=O)c3c(Cl)ccc(OC)c3Cl)CC2)c1 [FMF-04-184-1, N-(1-((3-acrylamidophenyl)sulfonyl)piperidin-4-yl)-4-(2,6-dichloro-3-methoxybenzamido)-1H-pyrazole-3-carboxamide] | 0.4 | < 1 | 100 |  |  |  |  |  |
| COc1ccc(Cl)c(C(=O)Nc2c[nH]nc2C(=O)NC2CCN(S(=O)(=O)c3cccc(NC(=O)/C=C/CN(C)C)c3)CC2)c1Cl [FMF-04-184-2, (E)-4-(2,6-dichloro-3-methoxybenzamido)-N-(1-((3-(4-(dimethylamino)but-2-enamido)phenyl)sulfonyl)piperidin-4-yl)-1H-pyrazole-3-carboxamide] | 6.4 | 23 | 100 | 1.8 | 3.5 |  |  |  |
| CN(C)C/C=C/C(=O)Nc1cccc(S(=O)(=O)N2CCC(NC(=O)c3n[nH]c(-c4ccccc4)c3NC(=O)c3c(Cl)cccc3Cl)CC2)c1 [FMF-04-197-1, (E)-4-(2,6-dichlorobenzamido)-N-(1-((3-(4-(dimethylamino)but-2-enamido)phenyl)sulfonyl)piperidin-4-yl)-5-phenyl-1H-pyrazole-3-carboxamide] | 28 | > 10000 |  | 5900 | 5900 |  |  |  |
| CC(C)c1[nH]nc(C(=O)NC2CCN(S(=O)(=O)c3cccc(NC(=O)/C=C/CN(C)C)c3)CC2)c1NC(=O)c1c(Cl)cccc1Cl [FMF-04-199-1, (E)-4-(2,6-dichlorobenzamido)-N-(1-((3-(4-(dimethylamino)but-2-enamido)phenyl)sulfonyl)piperidin-4-yl)-5-isopropyl-1H-pyrazole-3-carboxamide] | 1000 | > 10000 |  | 8900 | > 10000 |  |  |  |
| CN(C)C/C=C/C(=O)Nc1cccc(CN2CCC(NC(=O)c3n[nH]cc3NC(=O)c3c(F)cc(F)cc3F)CC2)c1 [FMF-04-200-2, (E)-N-(1-(3-(4-(dimethylamino)but-2-enamido)benzyl)piperidin-4-yl)-4-(2,4,6-trifluorobenzamido)-1H-pyrazole-3-carboxamide] | 17 | 293 |  | 110 | 508 |  |  |  |
| CN(C)C/C=C/C(=O)Nc1cccc(S(=O)(=O)N2CCC(NC(=O)c3n[nH]cc3NC(=O)c3ccccc3)CC2)c1 [FMF-05-027-2, (E)-4-benzamido-N-(1-((3-(4-(dimethylamino)but-2-enamido)phenyl)sulfonyl)piperidin-4-yl)-1H-pyrazole-3-carboxamide] | 3 | 440 |  | 9.8 | 2.8 |  |  |  |
| C=CC(=O)Nc1cccc(S(=O)(=O)N2CCC(NC(=O)c3n[nH]cc3NC(=O)c3c(OC)cc(OC)cc3OC)CC2)c1 [FMF-05-028-1, N-(1-((3-acrylamidophenyl)sulfonyl)piperidin-4-yl)-4-(2,4,6-trimethoxybenzamido)-1H-pyrazole-3-carboxamide] | 48 | > 10000 |  |  |  |  | LOW (>1 uM) |  |
| C=CC(=O)Nc1ccc(CNC(=O)c2n[nH]cc2NC(=O)c2c(Cl)cccc2Cl)cc1 [FMF-05-064-1, N-(4-acrylamidobenzyl)-4-(2,6-dichlorobenzamido)-1H-pyrazole-3-carboxamide] | 1700 | 117 |  | 478 | 15 |  |  |  |
| CN(C)C/C=C/C(=O)Nc1ccc(CNC(=O)c2n[nH]cc2NC(=O)c2c(Cl)cccc2Cl)cc1 [FMF-05-064-2, (E)-4-(2,6-dichlorobenzamido)-N-(4-(4-(dimethylamino)but-2-enamido)benzyl)-1H-pyrazole-3-carboxamide] | 108 | 4700 |  |  |  |  |  | LOW (>1 μM) |
| C=CC(=O)Nc1cccc(CNC(=O)c2n[nH]cc2NC(=O)c2c(Cl)cccc2Cl)c1 [FMF-05-067-1, N-(3-acrylamidobenzyl)-4-(2,6-dichlorobenzamido)-1H-pyrazole-3-carboxamide] |  | 8500 |  |  |  | > 1000 |  |  |
| CN(C)C/C=C/C(=O)Nc1ccc(N2CCC(NC(=O)c3n[nH]cc3NC(=O)c3c(Cl)cccc3Cl)CC2)cc1 [FMF-05-073-2, (E)-4-(2,6-dichlorobenzamido)-N-(1-(4-(4-(dimethylamino)but-2-enamido)phenyl)piperidin-4-yl)-1H-pyrazole-3-carboxamide] | 45 | 541 |  | 27.7 | 17 |  |  |  |
| CN(C)C/C=C/C(=O)Nc1cccc(N2CCC(NC(=O)c3n[nH]cc3NC(=O)c3c(Cl)cccc3Cl)CC2)c1 [FMF-05-085-2, (E)-4-(2,6-dichlorobenzamido)-N-(1-(3-(4-(dimethylamino)but-2-enamido)phenyl)piperidin-4-yl)-1H-pyrazole-3-carboxamide] | 27 | 427 |  | 74.4 | 20 |  |  |  |
| COc1ccccc1CC(=O)Nc1c[nH]nc1C(=O)NC1CCN(S(=O)(=O)c2cccc(NC(=O)/C=C/CN(C)C)c2)CC1 [FMF-05-117-1, (E)-N-(1-((3-(4-(dimethylamino)but-2-enamido)phenyl)sulfonyl)piperidin-4-yl)-4-(2-(2-methoxyphenyl)acetamido)-1H-pyrazole-3-carboxamide] | 14 | 395 |  | 17 | 5.71 |  |  |  |
| COc1cccc(OC)c1C(=O)Nc1c[nH]nc1C(=O)NC1CCN(S(=O)(=O)c2cccc(NC(=O)/C=C/CN(C)C)c2)CC1 [FMF-05-119-1, (E)-4-(2,6-dimethoxybenzamido)-N-(1-((3-(4-(dimethylamino)but-2-enamido)phenyl)sulfonyl)piperidin-4-yl)-1H-pyrazole-3-carboxamide] | 49.5 | 4110 |  | 11.3 | 24.6 |  |  |  |
| COc1cccc(F)c1C(=O)Nc1c[nH]nc1C(=O)NC1CCN(Cc2cccc(NC(=O)/C=C/CN(C)C)c2)CC1 [IHK-01-013-2, (E)-N-(1-(3-(4-(dimethylamino)but-2-enamido)benzyl)piperidin-4-yl)-4-(2-fluoro-6-methoxybenzamido)-1H-pyrazole-3-carboxamide] | 4.2 | 77 |  | 7.4 | 53 |  |  |  |
